Converted amounts (≈) assume the structure as drawn. Read-outs that look alike come from different tables or passages of the source.
What was measured:
E. coli #311 = test: In vivo activity (oral, iv; ED50) against E. coli in mice; conditions: for ED50: Escherichia coli
From the text: . […] Smith and E. Coli #311 in mammals.
Results of the tests (MIC, oral and IV) are list in Table 7.

E. coli [1] = test: Range of MIC for E. coli strains; conditions: for MIC: Escherichia coli
Staph. aureus Smith [2] = test: In vitro activity (MIC) against Staph. aureus Smith; assay type: cell-based; conditions: for MIC: Staphylococcus aureus
Staph. = test: Range of MIC for Staph. strains, including MRSA; conditions: for MIC: Staphylococcus aureus
Staph. aureus Smith [3] = test: In vivo activity (oral, iv; ED50) against Staph. aureus Smith in mice
Description: Representative examples of compounds of Formula I were tested for the oral efficacy using S. aureus Smith in mice.

E. coli [4] = test: In vitro activity (MIC) against E. coli (Table 7); assay type: cell-based
S. aureus, tet (M) = test: In vitro activity (MIC), strain groups
Description: (§1) Antimicrobial susceptibility testing. The in vitro activities of the antibiotics are determined by the broth microdilution method as recommended by the National Committee for Clinical Laboratory Standards (NCCLS) (1). Mueller-Hinton II broth (MHBII)(BBL Cockeysville, Md.) is the medium employed in the testing procedures. Microtiter plates containing serial dilutions of each antimicrobial agent are inoculated with each organism to yield the appropriate density (10^5 CFU/ml) in a 100 μl final volume. The plates are incubated for 18-22 hours at 35° C. in ambient air.
(§2) Representative compounds were first incubated in mouse serum for an hour prior to the in vitro testing against a panel of selected gram-positive and gram-negative bacteria strains. All compounds were also pre-incubated in water for an hour prior to testing as control. Representative compounds of Formula I were incubated in human serum prior to MIC determination.

[5] = system: E. coli, tet(A-D), efflux; test: In vitro activity (MIC), strain groups; conditions: E. coli, tet(A-D), efflux; Mouse serum
Description: as §1, §2

Enterococcus spp. = test: In vitro activity (MIC), strain groups; conditions: Enterococcus spp.
Description: as §1
(§3) Presented in Tables I-XIII are representative compounds of Formula I which were evaluated against a panel of 40 selected gram-positive and gram-negative bacteria strains by pre-incubation in water, mouse serum or human serum. Representative compounds were first incubated in mouse serum for an hour prior to the in vitro testing against a panel of selected gram-positive and gram-negative bacteria strains. All compounds were also pre-incubated in water for an hour prior to testing as control. Representative compounds of Formula I were incubated in human serum prior to MIC determination.

[6] = system: E. coli, tet (M,S,O) Tet (M); test: In vitro activity (MIC), strain groups; conditions: E. coli, tet (M,S,O) Tet (M)
Description: as §1, §3

Streptococcus spp. = test: In vitro activity (MIC), strain groups; conditions: Streptococcus spp.
Description: as §1, §3

[7] = single intravenous dose (SIV), read-out: ED50 E. coli #311 SIV
[8] = single oral dose (SOD), read-out: ED50 E. coli #311 SOD
[9] = 20 h, read-out: Range of MIC, E. coli (Mouse Serum)
[10] = read-out: Minimum inhibitory concentration (MIC), E. coli (Human Serum)
[11] = read-out: Range of MIC, E. coli (mouse serum)
[12] = MRSA, read-out: Range of MIC, Staph (Mouse Serum)
[13] = MRSA, read-out: Range of MIC, Staph (Water)
[14] = MRSA, read-out: Range of MIC, Staph. (mouse serum)
[15] = MRSA, read-out: Range of MIC, Staph. (water)
[16] = read-out: Minimum inhibitory concentration (MIC), Staph (Human Serum)
[17] = read-out: Minimum inhibitory concentration (MIC), Staph (Water)
[18] = Staphylococcus aureus, in Mus musculus, iv, read-out: ED50 SIV (Staph aureus Smith)
[19] = Staphylococcus aureus, in Mus musculus, po, read-out: ED50 SOD (Staph aureus Smith)
[20] = Staphylococcus aureus, in Mus musculus, po, read-out: ED50 Staph Smith SOD
[21] = iv, read-out: ED50 Staph Smith SIV
[22] = read-out: Minimum inhibitory concentration (MIC), E. coli (mouse serum)
[23] = read-out: Minimum inhibitory concentration (MIC), E. coli (water)
[24] = read-out: Range of MIC, E. coli (Water)
[25] = MRSA, read-out: Minimum inhibitory concentration (MIC), Staph. (mouse serum)
[26] = MRSA, read-out: Minimum inhibitory concentration (MIC), Staph. (water)

Compound: CCCCCCC(=O)OCOC(=O)N(CCC)CC(=O)Nc1cc(N(C)C)c2c(c1O)C(=O)C1=C(O)[C@]3(O)C(=O)C(C(N)=O)=C(O)[C@@H](N(C)C)[C@@H]3C[C@@H]1C2 [Example 19, ({[(2-{[(5aR,6aS,7S,10aS)-9-(aminocarbonyl)-4,7-bis(dimethylamino)-1,8,10a,11-tetrahydroxy-10,12-dioxo-5,5a,6,6a,7,10,10a,12-octahydrotetracen-2-yl]amino}-2-oxoethyl)(propyl)amino]carbonyl}oxy)methyl heptanoate]
- ED50 (E. coli #311; [7]): > 2 mg/kg
- ED50 (E. coli #311; [8]): > 32 mg/kg
- MIC (E. coli [1]; [9]): 0.5 to 2 µg/mL (≈ 0.66 to 2.64 µM)
- MIC (E. coli [1]; [10]): 8 to 32 µg/mL (≈ 10.6 to 42.2 µM)
- MIC (E. coli [1]; [11]): 0.5 to 2 µg/mL (≈ 0.66 to 2.64 µM)
- MIC (Staph. aureus Smith [2]; Table 8): 1 µg/mL (≈ 1.32 µM)
- MIC (Staph.; [12]): 0.5 to 4 µg/mL (≈ 0.66 to 5.28 µM)
- MIC (Staph.; [13]): 1 to 8 µg/mL (≈ 1.32 to 10.6 µM)
- MIC (Staph.; [14]): 0.5 to 4 µg/mL (≈ 0.66 to 5.28 µM)
- MIC (Staph.; [15]): 1 to 8 µg/mL (≈ 1.32 to 10.6 µM)
- MIC (Staph.; [16]): 0.12 to 1 µg/mL (≈ 0.158 to 1.32 µM)
- MIC (Staph.; [17]): 0.25 to 4 µg/mL (≈ 0.33 to 5.28 µM)
- ED50 (Staph. aureus Smith [3]; [18]): 0.31 mg/kg
- ED50 (Staph. aureus Smith [3]; [19]): 8.05 mg/kg
- ED50 (Staph. aureus Smith [3]; [20]): 8.05 mg/kg
- ED50 (Staph. aureus Smith [3]; [21]): 0.31 mg/kg

Compound: CCCCN(CC(=O)Nc1cc(N(C)C)c2c(c1O)C(=O)C1=C(O)[C@]3(O)C(=O)C(C(N)=O)=C(O)[C@@H](N(C)C)[C@@H]3C[C@@H]1C2)C(=O)OCOC(=O)CC(C)(C)C [Example 36, ({[(2-{[(5aR,6aS,7S,10aS)-9-(aminocarbonyl)-4,7-bis(dimethylamino)-1,8,10a,11-tetrahydroxy-10,12-dioxo-5,5a,6,6a,7,10,10a,12-octahydrotetracen-2-yl]amino}-2-oxoethyl)(butyl)amino]carbonyl}oxy)methyl 3,3-dimethylbutanoate]
- MIC (E. coli [1]; [9]): 2 to 8 µg/mL (≈ 2.64 to 10.6 µM)
- MIC (E. coli [1]; [22]): 2 to 8 µg/mL (≈ 2.64 to 10.6 µM)
- MIC (E. coli [1]; [23]): 8 to 32 µg/mL (≈ 10.6 to 42.2 µM)
- MIC (E. coli [1]; [24]): 8 to 32 µg/mL (≈ 10.6 to 42.2 µM)
- MIC (Staph. aureus Smith [2]; Table 8): 8 µg/mL (≈ 10.6 µM)
- MIC (Staph.; [25]): 2 to 4 µg/mL (≈ 2.64 to 5.28 µM)
- MIC (Staph.; [26]): 4 to 16 µg/mL (≈ 5.28 to 21.1 µM)
- MIC (Staph.; [12]): 2 to 4 µg/mL (≈ 2.64 to 5.28 µM)
- MIC (Staph.; [13]): 4 to 16 µg/mL (≈ 5.28 to 21.1 µM)
- ED50 (Staph. aureus Smith [3]; [18]): 0.84 mg/kg
- ED50 (Staph. aureus Smith [3]; [19]): 5.15 mg/kg
- ED50 (Staph. aureus Smith [3]; [20]): 5.15 mg/kg
- ED50 (Staph. aureus Smith [3]; [21]): 0.84 mg/kg

Compound: CCCCN(CC(=O)Nc1cc(N(C)C)c2c(c1O)C(=O)C1=C(O)[C@]3(O)C(=O)C(C(N)=O)=C(O)[C@@H](N(C)C)[C@@H]3C[C@@H]1C2)C(=O)OCOC(=O)CC1CCCC1 [Example 38, ({[(2-{[(5aR,6aS,7S,10aS)-9-(aminocarbonyl)-4,7-bis(dimethylamino)-1,8,10a,11-tetrahydroxy-10,12-dioxo-5,5a,6,6a,7,10,10a,12-octahydrotetracen-2-yl]amino}-2-oxoethyl)(butyl)amino]carbonyl}oxy)methyl cyclopentylacetate]
- MIC (E. coli [1]; [9]): 0.5 to 4 µg/mL (≈ 0.649 to 5.2 µM)
- MIC (E. coli [1]; [22]): 0.5 to 4 µg/mL (≈ 0.649 to 5.2 µM)
- MIC (Staph. aureus Smith [2]; Table 8): 2 µg/mL (≈ 2.6 µM)
- MIC (Staph.; [25]): 0.5 to 2 µg/mL (≈ 0.649 to 2.6 µM)
- MIC (Staph.; [26]): 1 to 8 µg/mL (≈ 1.3 to 10.4 µM)
- MIC (Staph.; [12]): 0.5 to 2 µg/mL (≈ 0.649 to 2.6 µM)
- MIC (Staph.; [13]): 1 to 8 µg/mL (≈ 1.3 to 10.4 µM)
- ED50 (Staph. aureus Smith [3]; [18]): 0.6 mg/kg
- ED50 (Staph. aureus Smith [3]; [19]): 5.3 mg/kg
- ED50 (Staph. aureus Smith [3]; [20]): 5.3 mg/kg
- ED50 (Staph. aureus Smith [3]; [21]): 0.6 mg/kg

Compound: CCCN(CC(=O)Nc1cc(N(C)C)c2c(c1O)C(=O)C1=C(O)[C@]3(O)C(=O)C(C(N)=O)=C(O)[C@@H](N(C)C)[C@@H]3C[C@@H]1C2)C(=O)OCOC(=O)CC1CCCC1 [Example 40, ({[(2-{[(5aR,6aS,7S,10aS)-9-(aminocarbonyl)-4,7-bis(dimethylamino)-1,8,10a,11-tetrahydroxy-10,12-dioxo-5,5a,6,6a,7,10,10a,12-octahydrotetracen-2-yl]amino}-2-oxoethyl)(propyl)amino]carbonyl}oxy)methyl cyclopentylacetate]
- MIC (E. coli [1]; [9]): 1 to 2 µg/mL (≈ 1.32 to 2.65 µM)
- MIC (E. coli [1]; [11]): 1 to 2 µg/mL (≈ 1.32 to 2.65 µM)
- MIC (Staph. aureus Smith [2]; Table 8): 0.5 µg/mL (≈ 0.662 µM)
- MIC (Staph.; [12]): 0.25 to 2 µg/mL (≈ 0.331 to 2.65 µM)
- MIC (Staph.; [13]): 0.25 to 2 µg/mL (≈ 0.331 to 2.65 µM)
- MIC (Staph.; [14]): 0.25 to 2 µg/mL (≈ 0.331 to 2.65 µM)
- MIC (Staph.; [15]): 0.25 to 2 µg/mL (≈ 0.331 to 2.65 µM)
- ED50 (Staph. aureus Smith [3]; [18]): 0.39 mg/kg
- ED50 (Staph. aureus Smith [3]; [19]): 4.65 mg/kg
- ED50 (Staph. aureus Smith [3]; [20]): 4.65 mg/kg
- ED50 (Staph. aureus Smith [3]; [21]): 0.39 mg/kg

Compound: CN(C)c1cc(NC(=O)CN(C(=O)OCOC(=O)CC2CCCC2)C(C)(C)C)c(O)c2c1C[C@H]1C[C@H]3[C@H](N(C)C)C(O)=C(C(N)=O)C(=O)[C@@]3(O)C(O)=C1C2=O [Example 54, ({[(2-{[(5aR,6aS,7S,10aS)-9-(aminocarbonyl)-4,7-bis(dimethylamino)-1,8,10a,11-tetrahydroxy-10,12-dioxo-5,5a,6,6a,7,10,10a,12-octahydrotetracen-2-yl]amino}-2-oxoethyl)(tert-butyl)amino]carbonyl}oxy)methyl cyclopentylacetate]
- ED50 (E. coli #311; [7]): 3.72 mg/kg
- ED50 (E. coli #311; single intravenous dose, mice, Table 7, read-out: ED50 SIV (E. coli)): 2.16 mg/kg
- ED50 (E. coli #311; [8]): > 32 mg/kg
- ED50 (E. coli #311; single oral dose, mice, Table 7, read-out: ED50 SOD (E. coli)): 29.2 mg/kg
- MIC (E. coli [1]; [9]): 0.5 to 1 µg/mL (≈ 0.649 to 1.3 µM)
- MIC (E. coli [1]; [10]): 16 to 32 µg/mL (≈ 20.8 to 41.6 µM)
- MIC (E. coli [1]; [23]): > 64 µg/mL
- MIC (E. coli [1]; [24]): > 64 µg/mL
- MIC (Staph. aureus Smith [2]; Table 6): 0.5 µg/mL (≈ 0.649 µM)
- MIC (Staph.; [12]): 0.5 to 2 µg/mL (≈ 0.649 to 2.6 µM)
- MIC (Staph.; [13]): 1 to 4 µg/mL (≈ 1.3 to 5.2 µM)
- MIC (Staph.; [16]): 0.5 to 2 µg/mL (≈ 0.649 to 2.6 µM)
- MIC (Staph.; [17]): 1 to 4 µg/mL (≈ 1.3 to 5.2 µM)
- ED50 (Staph. aureus Smith [3]; [18]): 0.83 mg/kg
- ED50 (Staph. aureus Smith [3]; [19]): 8.4 mg/kg
- ED50 (Staph. aureus Smith [3]; [20]): > 16 mg/kg
- ED50 (Staph. aureus Smith [3]; [21]): 1.17 mg/kg
- MIC (E. coli [4]; Escherichia coli): > 64 µg/mL

Compound: [({[(5aR,6aS,7S,10aS)-9-(aminocarbonyl)-4,7-bis(dimethylamino)-1,8,10a,11-tetrahydroxy-10,12-dioxo-5,5a,6,6a,7,10,10a,12-octahydrotetracen-2-yl]amino}carbonyl)oxy]methyl 4-tert-butylbenzoate [Example 87]
- ED50 SIV (E. coli) (E. coli #311; single intravenous dose, mice, Table 7): 3.6 mg/kg
- ED50 SOD (E. coli) (E. coli #311; single oral dose, mice, Table 7): 60.4 mg/kg
- In vitro activity (MIC) (S. aureus, tet (M); Human serum): 16
- In vitro activity (MIC) (S. aureus, tet (M); Mouse serum): 0.5
- In vitro activity (MIC) (S. aureus, tet (M); water): 64
- In vitro activity (MIC) [5]: 0.25-0.5
- In vitro activity (MIC) (Enterococcus spp.; Human serum): 0.25-8
- In vitro activity (MIC) (Enterococcus spp.; Mouse serum): 0.12-0.5
- In vitro activity (MIC) (Enterococcus spp.; water): 0.25-32
- Range of MIC, E. coli (Water) (E. coli [1]; Water, Table 1): >64 µg/mL
- MIC (Staph aureus Smith) (Staph. aureus Smith [2]; Table 6): 32 µg/mL
- Range of MIC, Staph (Mouse Serum) (Staph.; Mouse Serum, including MRSA, Table 1): 32 to 64 µg/mL
- Range of MIC, Staph (Water) (Staph.; Water, including MRSA, Table 1): >64 µg/mL
- In vitro activity (MIC) ([6]; Human serum): >64
- In vitro activity (MIC) ([6]; Mouse serum): 0.25-0.5
- In vitro activity (MIC) ([6]; water): >64
- ED50 SIV (Staph aureus Smith) (Staph. aureus Smith [3]; single intravenous dose, mice, Table 6): 0.83 mg/kg
- ED50 SOD (Staph aureus Smith) (Staph. aureus Smith [3]; single oral dose, mice, Table 6): 12.82 mg/kg
- MIC (E. coli) (E. coli [4]): >64 µg/mL
- In vitro activity (MIC) (Streptococcus spp.; Human serum): 1-2
- In vitro activity (MIC) (Streptococcus spp.; water): 0.5-2
